Experiment [1] has as its system COPD patients. Particulars: pre-specified analysis of ISOLDE, all patients; 500 mcg twice daily, 3 years; cited from earlier work.
Experiment [2] relates to COPD patients. The experiment can be described thus: Re-analysis of ISOLDE 3-year clinical study: rate of decline of FEV1 by baseline blood eosinophil count. Type of experiment: in vivo, human. Particulars: 500 mcg twice daily. From the text:
Methods: The results of ISOLDE (Burge P S et al BMJ 2000; 320:1297-303), a 3-year study of the effects of fluticasone propionate (FP) 500 mcg twice daily on rate of decline of FEV1 in well-characterised COPD patients were re-analysed by baseline blood eosinophil count (≥2%, <2%).

As to `CCC(=O)O[C@]1(C(=O)SCF)[C@H](C)C[C@H]2[C@@H]3C[C@H](F)C4=CC(=O)C=C[C@]4(C)[C@@]3(F)[C@@H](O)C[C@@]21C` [FP, fluticasone propionate], the “effect on the rate of decline of FEV1 vs. placebo” value in experiment [1] is listed as “no effect”. In experiment [2] (patients with eosinophil count <2%, 3 years), the “difference in rate of decline of FEV1 vs. placebo” value is “no difference”. For the same compound, the “slowing of the rate of decline of lung function compared with placebo” value in experiment [2] (patients with eosinophil count ≥2%, p=0.001) is reported as 38 mL per year.
